Experimental data published in patent US20080234326A1, “Novel Salts of Pantoprazole and (S) - Pantoprazole” (Altana Pharma AG, priority 2004, published 2008).

Assay: stability as a storage form
Type: physicochemical
Settings: statement in words, no method or data given

Compound: COc1ccnc(C[S+]([O-])c2nc3cc(OC(F)F)ccc3[n-]2)c1OC.[Na+] [sodium salt of (−)- or (S)-pantoprazole]
- formation of a stable storage form: does not form a stable storage form
